Test results from ChEMBL document CHEMBL3046439, “Spectroscopic characterization of novel d-amino acid-Schiff bases and their Cr(III) and Ni(II) complexes as antimicrobial agents” (2013).

What was measured:
[1] = system: Staphylococcus epidermidis; assay: Antimicrobial activity against Staphylococcus epidermidis assessed as diameter of growth inhibition zone at 0.25 ug/ml after 24 hr by well diffusion method; format: functional; conditions: read-out: DIZ
[2] = system: Salmonella typhi; assay: Antimicrobial activity against Salmonella enterica subsp. enterica serovar Typhi H NCTC 901.8394 assessed as diameter of growth inhibition zone at 0.25 ug/ml after 24 hr by well-diffusion method; format: functional; conditions: H NCTC 901.8394, 24 h, read-out: DIZ
[3] = system: Micrococcus luteus; assay: Antimicrobial activity against Micrococcus luteus ATCC 9341 assessed as diameter of growth inhibition zone at 0.25 ug/ml after 24 hr by well-diffusion method; format: functional; conditions: ATCC 9341, 24 h, read-out: DIZ
[4] = system: Shigella dysenteriae; assay: Antimicrobial activity against Shigella dysenteriae type 10 NCTC 9351 assessed as diameter of growth inhibition zone at 0.25 ug/ml after 24 hr by well diffusion method; format: functional; conditions: type 10 NCTC 9351, 24 h, read-out: DIZ
[5] = system: Candida albicans; assay: Antimicrobial activity against Candida albicans Y-1200-NIH assessed as diameter of growth inhibition zone at 0.25 ug/ml after 24 hr by well-diffusion method; format: functional; conditions: read-out: DIZ
[6] = system: Listeria monocytogenes; assay: Antimicrobial activity against Listeria monocytogenes ATCC 19115 assessed as diameter of growth inhibition zone at 0.25 ug/ml after 24 hr by well-diffusion method; format: functional; conditions: ATCC 19115, 24 h, read-out: DIZ
[7] = system: Escherichia coli; assay: Antimicrobial activity against Escherichia coli ATCC 1280 assessed as diameter of growth inhibition zone at 0.25 ug/ml after 24 hr by well-diffusion method; format: functional; conditions: ATCC 1280, 24 h, read-out: DIZ
[8] = system: Brucella abortus; assay: Antimicrobial activity against Brucella abortus (A.99, UK-1995) RSKK03026 assessed as diameter of growth inhibition zone at 0.25 ug/ml after 24 hr by well-diffusion method; format: functional; conditions: (A.99, UK-1995) RSKK03026, 24 h, read-out: DIZ
[9] = system: Staphylococcus aureus; assay: Antimicrobial activity against Staphylococcus aureus ATCC 25923 assessed as diameter of growth inhibition zone at 0.25 ug/ml after 24 hr by well-diffusion method; format: functional; conditions: ATCC 25923, 24 h, read-out: DIZ
[10] = system: Escherichia coli; assay: microbe, parasite or virus in culture; conditions: ATCC 1280, 24 h, read-out: DIZ
[11] = system: Salmonella typhi; assay: Antimicrobial activity against Salmonella enterica subsp. enterica serovar Typhi H NCTC 901.8394 assessed as diameter of growth inhibition zone at 25 ug after 24 hr by well-diffusion method; format: functional; conditions: H NCTC 901.8394, 24 h, read-out: DIZ
[12] = system: Listeria monocytogenes; assay: Antimicrobial activity against Listeria monocytogenes ATCC 19115 assessed as diameter of growth inhibition zone at 25 ug after 24 hr by well-diffusion method; format: functional; conditions: ATCC 19115, 24 h, read-out: DIZ
[13] = system: Staphylococcus aureus; assay: Antimicrobial activity against Staphylococcus aureus ATCC 25923 assessed as diameter of growth inhibition zone at 25 ug after 24 hr by well-diffusion method; format: functional; conditions: ATCC 25923, 24 h, read-out: DIZ
[14] = system: Listeria monocytogenes; assay: Antimicrobial activity against Listeria monocytogenes ATCC 19115 assessed as diameter of growth inhibition zone at 30 ug after 24 hr by well-diffusion method; format: functional; conditions: ATCC 19115, 24 h, read-out: DIZ
[15] = system: Staphylococcus aureus; assay: Antimicrobial activity against Staphylococcus aureus ATCC 25923 assessed as diameter of growth inhibition zone at 30 ug after 24 hr by well-diffusion method; format: functional; conditions: ATCC 25923, 24 h, read-out: DIZ
[16] = system: Escherichia coli; assay: Antimicrobial activity against Escherichia coli ATCC 1280 assessed as diameter of growth inhibition zone at 30 ug after 24 hr by well-diffusion method; format: functional; conditions: ATCC 1280, 24 h, read-out: DIZ
[17] = system: Salmonella typhi; assay: Antimicrobial activity against Salmonella enterica subsp. enterica serovar Typhi H NCTC 901.8394 assessed as diameter of growth inhibition zone at 30 ug after 24 hr by well-diffusion method; format: functional; conditions: H NCTC 901.8394, 24 h, read-out: DIZ
[18] = system: Brucella abortus; assay: Antimicrobial activity against Brucella abortus (A.99, UK-1995) RSKK03026 assessed as diameter of growth inhibition zone at 30 ug after 24 hr by well-diffusion method; format: functional; conditions: (A.99, UK-1995) RSKK03026, 24 h, read-out: DIZ
[19] = system: Escherichia coli; assay: Antimicrobial activity against Escherichia coli ATCC 1280 assessed as diameter of growth inhibition zone at 10 ug after 24 hr by well-diffusion method; format: functional; conditions: ATCC 1280, 24 h, read-out: DIZ
[20] = system: Salmonella typhi; assay: Antimicrobial activity against Salmonella enterica subsp. enterica serovar Typhi H NCTC 901.8394 assessed as diameter of growth inhibition zone at 10 ug after 24 hr by well-diffusion method; format: functional; conditions: H NCTC 901.8394, 24 h, read-out: DIZ
[21] = system: Staphylococcus aureus; assay: Antimicrobial activity against Staphylococcus aureus ATCC 25923 assessed as diameter of growth inhibition zone at 10 ug after 24 hr by well-diffusion method; format: functional; conditions: ATCC 25923, 24 h, read-out: DIZ
[22] = system: Listeria monocytogenes; assay: Antimicrobial activity against Listeria monocytogenes ATCC 19115 assessed as diameter of growth inhibition zone at 10 ug after 24 hr by well-diffusion method; format: functional; conditions: ATCC 19115, 24 h, read-out: DIZ

With `O=C(O)C/N=C/c1cc(F)cc(Cl)c1O` the zone of inhibition at 0.25 µg/mL [1] was 12.5 mm, the zone of inhibition at 0.25 µg/mL [2] was 18 mm and the zone of inhibition at 0.25 µg/mL [3] was 26.5 mm. It also gave a zone of inhibition at 0.25 µg/mL [4] of 18 mm, a zone of inhibition at 0.25 µg/mL [5] of 15.5 mm and a zone of inhibition at 0.25 µg/mL [6] of 10 mm. For the same molecule, the zone of inhibition at 0.25 µg/mL [7] was 16 mm, the zone of inhibition at 0.25 µg/mL [8] was 15 mm and the zone of inhibition at 0.25 µg/mL [9] was 18.5 mm.

With `O=C(O)C/N=C/c1cc(F)ccc1O` the zone of inhibition at 0.25 µg/mL [1] was 6 mm, the zone of inhibition at 0.25 µg/mL [2] was 15 mm and the zone of inhibition at 0.25 µg/mL [3] was 15 mm. It also gave a zone of inhibition at 0.25 µg/mL [4] of 11 mm, a zone of inhibition at 0.25 µg/mL [5] of 10 mm and a zone of inhibition at 0.25 µg/mL [6] of 10 mm. It also gave a zone of inhibition at 0.25 µg/mL [7] of 13 mm, a zone of inhibition at 0.25 µg/mL [8] of 11.5 mm and a zone of inhibition at 0.25 µg/mL [9] of 7 mm.

With `C[C@@H](/N=C/c1cc(F)ccc1O)C(=O)O` the zone of inhibition at 0.25 µg/mL [1] was 5 mm, the zone of inhibition at 0.25 µg/mL [3] was 14 mm and the zone of inhibition at 0.25 µg/mL [5] was 12.5 mm. It also gave a zone of inhibition at 0.25 µg/mL [6] of 6.5 mm, a zone of inhibition at 0.25 µg/mL [7] of 10 mm and a zone of inhibition at 0.25 µg/mL [8] of 10.5 mm. It also gave a zone of inhibition at 0.25 µg/mL [9] of 6 mm.

`Cc1cc(NS(=O)(=O)c2ccc(N)cc2)no1` [SULFAMETHOXAZOLE] was tested, and the zone of inhibition at 25 µg/disc [10] was 18 mm, the zone of inhibition at 25 µg/disc [11] was 17 mm and the zone of inhibition at 25 µg/disc [12] was 11 mm. For the same molecule, the zone of inhibition at 25 µg/disc [13] was 24 mm.

`NC[C@H]1O[C@H](O[C@H]2[C@H](O)[C@@H](O[C@H]3O[C@H](CO)[C@@H](O)[C@H](N)[C@H]3O)[C@H](N)C[C@@H]2N)[C@H](O)[C@@H](O)[C@@H]1O` [KANAMYCIN] was tested, and the zone of inhibition at 30 µg/disc [14] was 15 mm, the zone of inhibition at 30 µg/disc [15] was 25 mm and the zone of inhibition at 30 µg/disc [16] was 25 mm. The zone of inhibition at 30 µg/disc [17] was 20 mm.

Molecule `CC1(C)[C@H](C(=O)O)N2C(=O)C[C@H]2S1(=O)=O` [SULBACTAM] has a zone of inhibition at 30 µg/disc [18] of 12 mm.

With `C[C@@H](/N=C/c1cc(F)cc(Cl)c1O)C(=O)O` the zone of inhibition at 0.25 µg/mL [1] was 12 mm, the zone of inhibition at 0.25 µg/mL [2] was 11.5 mm and the zone of inhibition at 0.25 µg/mL [3] was 23.5 mm. It also gave a zone of inhibition at 0.25 µg/mL [4] of 11.5 mm, a zone of inhibition at 0.25 µg/mL [5] of 15 mm and a zone of inhibition at 0.25 µg/mL [6] of 12.5 mm. It also gave a zone of inhibition at 0.25 µg/mL [7] of 15.5 mm, a zone of inhibition at 0.25 µg/mL [8] of 17.5 mm and a zone of inhibition at 0.25 µg/mL [9] of 16 mm.

With `CC1(C)S[C@@H]2[C@H](NC(=O)[C@H](N)c3ccc(O)cc3)C(=O)N2[C@H]1C(=O)O` [AMOXICILLIN] the zone of inhibition at 30 µg/disc [14] was 22 mm, the zone of inhibition at 30 µg/disc [15] was 30 mm and the zone of inhibition at 30 µg/disc [16] was 14 mm. It also gave a zone of inhibition at 30 µg/disc [17] of 19 mm.

With `CC1(C)S[C@@H]2[C@H](NC(=O)[C@H](N)c3ccccc3)C(=O)N2[C@H]1C(=O)O` [AMPICILLIN] the zone of inhibition at 10 µg/disc [19] was 10 mm, the zone of inhibition at 10 µg/disc [20] was 11 mm and the zone of inhibition at 10 µg/disc [21] was 30 mm. It also gave a zone of inhibition at 10 µg/disc [22] of 16 mm.
